According to patent publication US5670482A, “Neuropeptide Y antagonists” (Glaxo Wellcome Inc., priority 1992, dated 1997):
Positions of bridges follow the written chain, without caps; N, C: chain ends. Non-standard residues stand in square brackets, D forms with d. Residues, ends and D or L forms follow the SMILES beside them. Chains are numbered I, II in the order given. *: point of attachment. Desaminotyrosyl = O=C(CCc1ccc(O)cc1)*; Orn = NCCC[C@H](N)C(=O)O; Dap = NC[C@H](N)C(=O)O; X1 = Clc1cccc(Cl)c1C*; Aib = CC(C)(N)C(=O)O

Assays:
[1] = target: NPY receptors in rat brain membranes; assay: Radioreceptor binding assay (3H-NPY, rat brain membranes); settings: 37° C.
Procedure: Rat brain membranes were incubated with ^3 H-NPY up to equilibrium at 37° C. in the presence of several peptides at different concentrations and in a final volume of 1 ml. Non-specific binding was determined by adding 100 nM of cold NPY. At the end of the incubation period the samples were either filtered (GF/C filter), or 0.5 ml of cold incubation buffer was added and the tubes centrifuged at 15,000 g for 10 min. The supernatant was discarded and the pellet or filters resuspended and counted by liquid scintillation. Results were processed using a computer programme that calculated IC50, Kd, Bmax and Hill coefficient by linear regression. IC50 results where available are shown in column (a) of the Table.

[2] = test system: Human erythroleukemic (HEL) cells; assay: Intracellular calcium measurements in HEL cells (Fura-2); type: cell-based; settings: for HEL CELLS % Fluor (c): agonistic activity: fluorescence induced by 100 nM of the peptide; for IC50: antagonism of 5 nM NPY-induced calcium signal, read-out: HEL CELLS IC50 (d); for HEL CELLS % INHIB (b): inhibition of increase in HEL cell intracellular calcium induced by 5 nM NPY, 100 nM compound
Procedure: Human erythroleukemic (HEL) cells were loaded with Fura-2 (1 μM for 1 h), washed and then placed in a cuvette (5×10^5 cells in 2.5 ml) and excited simultaneously at 340 and 380 nm in a SLM spectrofluorometer. Fluorescence changes after the addition of NPY and/or peptide analogs were followed by recording emission at 510 nm. Calcium concentrations can be determined through a computer programme by using the ratio of fluorescence 340/380 nm. The agonistic activity of peptide analogs was tested by recording the fluorescence induced upon stimulation of the cells with 100 nM of the peptide and the antagonistic activity by observing the decrease in fluorescence induced by 5 nM NPY in the presence of the analog The results where available are indicated in column (c) of the Table.
The inhibition of the increase in the HEL cell intracellular calcium (induced by 5 nM NPY) achieved by 100 nM concentrations of each compound is shown in column (b) of the Table.

Compound | IC50 [1] [nM] | HEL CELLS % Fluor (c) [2] [%] | IC50 [2] [nM] | HEL CELLS % INHIB (b) [2] [%]
CC[C@H](C)[C@H](N)C(=O)N[C@@H](CSSC[C@H](NC(=O)[C@@H](N)[C@@H](C)CC)C(=O)N1CCC[C@H]1C(=O)N[C@H](C(=O)N[C@@H](Cc1ccc(O)cc1)C(=O)N[C@@H](CCCNC(=N)N)C(=O)N[C@@H](CC(C)C)C(=O)N[C@@H](CCCNC(=N)N)C(=O)N[C@@H](Cc1ccc(O)cc1)C(N)=O)[C@@H](C)CC)C(=O)N1CCC[C@H]1C(=O)N[C@H](C(=O)N[C@@H](Cc1ccc(O)cc1)C(=O)N[C@@H](CCCNC(=N)N)C(=O)N[C@@H](CC(C)C)C(=O)N[C@@H](CCCNC(=N)N)C(=O)N[C@@H](Cc1ccc(O)cc1)C(N)=O)[C@@H](C)CC [Example 13, (IleCysProIleTyrArgLeuArgTyr-NH2)2] (I: H-ICPIYRLRY-NH2 / II: H-ICPIYRLRY-NH2; disulfide I:2-II:2 (inferred); N-terminus assumed) | 35 | 0 | 0.75 | 100
CC[C@H](C)[C@H](N)C(=O)N[C@@H](CC(N)=O)C(=O)N1CCC[C@H]1C(=O)NC(CCCC(NC(=O)[C@@H]1CCCN1C(=O)[C@H](CC(N)=O)NC(=O)[C@@H](N)[C@@H](C)CC)C(=O)N[C@@H](Cc1ccc(O)cc1)C(=O)N[C@@H](CCCNC(=N)N)C(=O)N[C@@H](CC(C)C)C(=O)N[C@@H](CCCNC(=N)N)C(=O)N[C@@H](Cc1ccc(O)cc1)C(N)=O)C(=O)N[C@@H](Cc1ccc(O)cc1)C(=O)N[C@@H](CCCNC(=N)N)C(=O)N[C@@H](CC(C)C)C(=O)N[C@@H](CCCNC(=N)N)C(=O)N[C@@H](Cc1ccc(O)cc1)C(N)=O (stereo partly drawn) [Example 14, IleAsnPro TyrArgLeuArgTyr-NH2 (SEQ.ID.No:17) Pim IleAsnPro TyrArgLeuArgTyr-NH2 (SEQ.ID.No:17)] | 1.9 | 0 | 5 | 100
CC[C@H](C)[C@H](N)C(=O)N[C@@H](CC(N)=O)C(=O)N1CCC[C@H]1C(=O)N[C@H](C(=O)N[C@@H](Cc1ccc(O)cc1)C(=O)N[C@@H](CCCNC(=N)N)C(=O)N[C@@H](CC(C)C)C(=O)N[C@@H](CCCNC(=N)N)C(=O)N[C@@H](Cc1ccc(O)cc1)C(N)=O)[C@@H](C)OC [Example 2, IleAsnPro(O-MethylThr)TyrArgLeuArgTyr-NH2] (H-INPT(Me)YRLRY-NH2) | 280 | 0 | 5 | 100
CC[C@H](C)[C@H](N)C(=O)N[C@@H](CC(N)=O)C(=O)N1CCC[C@H]1C(=O)NC(C)(C)C(=O)N[C@@H](Cc1ccc(OCc2c(Cl)cccc2Cl)cc1)C(=O)N[C@@H](CCCNC(=N)N)C(=O)N[C@@H](CC(C)C)C(=O)N[C@@H](CCCNC(=N)N)C(=O)N[C@@H](Cc1ccc(O)cc1)C(N)=O [Example 3, IleAsnProAib[O-(2,6-Dichlorobenzyl)Tyr]ArgLeuArgTyr-NH2] (H-INP[Aib]Y(X1)RLRY-NH2; N-terminus assumed) | 350 | 0 | 8 | 100
CC[C@H](C)[C@H](NC(=O)CCc1ccc(O)cc1)C(=O)N[C@@H](CC(N)=O)C(=O)N[C@@H](CC(C)C)C(=O)N[C@H](C(=O)N[C@@H](Cc1ccc(O)cc1)C(=O)N[C@@H](CCCNC(=N)N)C(=O)N[C@@H](CC(C)C)C(=O)N[C@@H](CCCNC(=N)N)C(=O)N[C@@H](Cc1ccc(O)cc1)C(N)=O)[C@@H](C)CC [Example 18, desNH2 TyrIleAsnLeuIleTyrArgLeuArgTyr-NH2] (Desaminotyrosyl-INLIYRLRY-NH2) | 17 | 28 |  | 62
CC[C@H](C)[C@H](N)C(=O)N[C@H]1CC(=O)NC[C@@H](C(=O)N[C@@H](Cc2ccc(O)cc2)C(=O)N[C@@H](CCCNC(=N)N)C(=O)N[C@@H](CC(C)C)C(=O)N[C@@H](CCCNC(=N)N)C(=O)N[C@@H](Cc2ccc(O)cc2)C(N)=O)NC(=O)[C@@H]2CCCN2C(=O)[C@@H](NC(=O)[C@@H](N)[C@@H](C)CC)CC(=O)NC[C@@H](C(=O)N[C@@H](Cc2ccc(O)cc2)C(=O)N[C@@H](CCCNC(=N)N)C(=O)N[C@@H](CC(C)C)C(=O)N[C@@H](CCCNC(=N)N)C(=O)N[C@@H](Cc2ccc(O)cc2)C(N)=O)NC(=O)[C@@H]2CCCN2C1=O [Example 7, IleAspProDprTyrArgLeuArgTyr-NH2,Cyclic(2,4'),(2',4)-Diamide] (I: H-IDP[Dap]YRLRY-NH2 / II: H-IDP[Dap]YRLRY-NH2; amide I:2-II:4, I:4-II:2; N-terminus assumed) | 15 | 0 | 1.5 | 100
CC[C@H](C)[C@H](N)C(=O)N[C@H]1CCC(=O)NCCC[C@@H](C(=O)N[C@@H](Cc2ccc(O)cc2)C(=O)N[C@@H](CCCNC(=N)N)C(=O)N[C@@H](CC(C)C)C(=O)N[C@@H](CCCNC(=N)N)C(=O)N[C@@H](Cc2ccc(O)cc2)C(N)=O)NC(=O)[C@@H]2CCCN2C(=O)[C@@H](NC(=O)[C@@H](N)[C@@H](C)CC)CCC(=O)NCCC[C@@H](C(=O)N[C@@H](Cc2ccc(O)cc2)C(=O)N[C@@H](CCCNC(=N)N)C(=O)N[C@@H](CC(C)C)C(=O)N[C@@H](CCCNC(=N)N)C(=O)N[C@@H](Cc2ccc(O)cc2)C(N)=O)NC(=O)[C@@H]2CCCN2C1=O [Example 15, IleGluProOrnTyrArgLeuArgTyr-NH2,Cyclic(2,4'),(2',4)-Diamide] (I: H-IEP[Orn]YRLRY-NH2 / II: H-IEP[Orn]YRLRY-NH2; amide I:2-II:4, I:4-II:2; N-terminus assumed) | < 0.1 | 0 | 0.25 | 100
CC[C@H](C)[C@H](N)C(=O)N[C@H]1CNC(=O)C[C@@H](C(=O)N[C@@H](Cc2ccc(O)cc2)C(=O)N[C@@H](CCCNC(=N)N)C(=O)N[C@@H](CC(C)C)C(=O)N[C@@H](CCCNC(=N)N)C(=O)N[C@@H](Cc2ccc(O)cc2)C(N)=O)NC(=O)[C@@H]2CCCN2C(=O)[C@@H](NC(=O)[C@@H](N)[C@@H](C)CC)CNC(=O)C[C@@H](C(=O)N[C@@H](Cc2ccc(O)cc2)C(=O)N[C@@H](CCCNC(=N)N)C(=O)N[C@@H](CC(C)C)C(=O)N[C@@H](CCCNC(=N)N)C(=O)N[C@@H](Cc2ccc(O)cc2)C(N)=O)NC(=O)[C@@H]2CCCN2C1=O [Example 8, IleDprProAspTyrArgLeuArgTyr-NH2,Cyclic(2,4'),(2',4)-Diamide] (I: H-I[Dap]PDYRLRY-NH2 / II: H-I[Dap]PDYRLRY-NH2; amide I:2-II:4, I:4-II:2; N-terminus assumed) | 7.5 | 0 | 2.5 | 100
IleCysProCysTyrArgLeuArgTyr-NH2,Cyclic(2,2'), (4,4')-Disulfide Dimer and IleCysProCysTyrArgLeuArgTyr-NH2,Cyclic(2,4'),(4,2')-Disulfide Dimer [Example 6] | 250 | 0 | 2 | 100
CC[C@H](C)[C@H](N)C(=O)N[C@H]1CC(=O)NCCC[C@@H](C(=O)N[C@@H](Cc2ccc(O)cc2)C(=O)N[C@@H](CCCNC(=N)N)C(=O)N[C@@H](CC(C)C)C(=O)N[C@@H](CCCNC(=N)N)C(=O)N[C@@H](Cc2ccc(O)cc2)C(N)=O)NC(=O)[C@@H]2CCCN2C(=O)[C@@H](NC(=O)[C@@H](N)[C@@H](C)CC)CC(=O)NCCC[C@@H](C(=O)N[C@@H](Cc2ccc(O)cc2)C(=O)N[C@@H](CCCNC(=N)N)C(=O)N[C@@H](CC(C)C)C(=O)N[C@@H](CCCNC(=N)N)C(=O)N[C@@H](Cc2ccc(O)cc2)C(N)=O)NC(=O)[C@@H]2CCCN2C1=O [Example 16, IleAspProOrnTyrArgLeuArgTyrNH2,Cyclic(2,4'),(2',4)-Diamide] (I: H-IDP[Orn]YRLRY-NH2 / II: H-IDP[Orn]YRLRY-NH2; amide I:2-II:4, I:4-II:2; N-terminus assumed) | < 0.1 | 0 | 0.25 | 100
